Measured values as given in patent publication US20250136638A1, “9(11)-UNSATURATED NEUROACTIVE STEROIDS AND THEIR METHODS OF USE” (SAGE THERAPEUTICS, INC., priority 2018, published 2025).

Molecular target: rat brain cortical membranes ([35S]-TBPS binding, GABA receptor complex)
Assay: Steroid inhibition of [35S]-TBPS binding
Details: 3 nM [35S]-TBPS, in the presence of 5 mM GABA
Description: [^35S]-t-Butylbicyclophosphorothionate (TBPS) binding assays using rat brain cortical membranes in the presence of 5 mM GABA has been described (Gee et al, J. Pharmacol. Exp. Ther. 1987, 241, 346-353; Hawkinson et al, Mol. Pharmacol. 1994, 46, 977-985; Lewin, A. H et al., Mol. Pharmacol. 1989, 35, 189-194).
Briefly, cortices are rapidly removed following decapitation of carbon dioxide-anesthetized Sprague-Dawley rats (200-250 g). The cortices are homogenized in 10 volumes of ice-cold 0.32 M sucrose using a glass/teflon homogenizer and centrifuged at 1500×g for 10 min at 4° C. The resultant supernatants are centrifuged at 10,000×g for 20 min at 4° C. to obtain the P2 pellets. The P2 pellets are resuspended in 200 mM NaCl/50 mM Na—K phosphate pH 7.4 buffer and centrifuged at 10,000×g for 10 min at 4° C. This washing procedure is repeated twice and the pellets are resuspended in 10 volumes of buffer. Aliquots ([…]) of the membrane suspensions are incubated with 3 nM [^35S]-TBPS and […] aliquots of test drug dissolved in dimethyl sulfoxide (DMSO) (final 0.5%) in the presence of 5 mM GABA. The incubation is brought to a final volume of 1.0 mL with buffer. Nonspecific binding is determined in the presence of […] and ranged from 15 to 25%. Following a 90 min incubation at room temp, the assays are terminated by filtration through glass fiber filters (Schleicher and Schuell No. 32) using a cell harvester (Brandel) and rinsed three times with ice-cold buffer. Filter bound radioactivity is measured by liquid scintillation spectrometry. Non-linear curve fitting of the overall data for each drug averaged for each concentration is done using Prism (GraphPad). […] The concentration of test compound producing 50% inhibition (IC50) of specific binding and the maximal extent of inhibition (Imax) are determined for the individual experiments with the same model used for the overall data and then the means±SEM.s of the individual experiments are calculated.
Various compounds are or can be screened to determine their potential as modulators of [^35S]-TBPS binding in vitro. These assays are or can be performed in accordance with the above.

| Compound | IC50 [nM] |
| --- | --- |
| CC(=O)[C@H]1CC[C@H]2[C@@H]3CC[C@H]4C[C@](C)(O)CC[C@]4(C)C3=CC[C@]12C [Example 1, 1-((3R,5S,8S,10S,13S,14S,17S)-3-hydroxy-3,10,13-trimethyl-2,3,4,5,6,7,8,10,12,13,14,15,16,17-tetradecahydro-1H-cyclopenta[a]phenanthren-17-yl)ethan-1-one] | 100 to 1000 |
| C[C@@]1(O)CC[C@]2(C)C3=CC[C@]4(C)[C@@H](C(=O)Cn5cc(C#N)cn5)CC[C@H]4[C@@H]3CC[C@H]2C1 [Example 2, 1-(2-((3R,5S,8S,10S,13S,14S,17S)-3-hydroxy-3,10,13-trimethyl-2,3,4,5,6,7,8,10,12,13,14,15,16,17-tetradecahydro-1H-cyclopenta[a]phenanthren-17-yl)-2-oxoethyl)-1H-pyrazole-4-carbonitrile] | 10 to 100 |
| C[C@@]1(O)CC[C@]2(C)C3=CC[C@]4(C)[C@H](C(=O)Cn5cc(C#N)cn5)CC[C@H]4[C@@H]3CC[C@H]2C1 [Example 3, 1-(2-((3R,5S,8S,10S,13S,14S,17R)-3-hydroxy-3,10,13-trimethyl-2,3,4,5,6,7,8,10,12,13,14,15,16,17-tetradecahydro-1H-cyclopenta[a]phenanthren-17-yl)-2-oxoethyl)-1H-pyrazole-4-carbonitrile] | 1000 to 10000 |
| Cc1nnn(CC(=O)[C@H]2CC[C@H]3[C@@H]4CC[C@H]5C[C@](C)(O)CC[C@]5(C)C4=CC[C@]23C)n1 [Example 4, 1-((3R,5S,8S,10S,13S,14S,17S)-3-hydroxy-3,10,13-trimethyl-2,3,4,5,6,7,8,10,12,13,14,15,16,17-tetradecahydro-1H-cyclopenta[a]phenanthren-17-yl)-2-(5-methyl-2H-tetrazol-2-yl)ethan-1-one] | 100 to 1000 |
| Cc1nnnn1CC(=O)[C@H]1CC[C@H]2[C@@H]3CC[C@H]4C[C@](C)(O)CC[C@]4(C)C3=CC[C@]12C [Example 5, 1-((3R,5S,8S,10S,13S,14S,17S)-3-hydroxy-3,10,13-trimethyl-2,3,4,5,6,7,8,10,12,13,14,15,16,17-tetradecahydro-1H-cyclopenta[a]phenanthren-17-yl)-2-(5-methyl-1H-tetrazol-1-yl)ethan-1-one] | 100 to 1000 |
| C[C@@]1(O)CC[C@]2(C)C3=CC[C@]4(C)[C@@H](C(=O)Cn5ccnn5)CC[C@H]4[C@@H]3CC[C@H]2C1 [Example 6, 1-((3R,5S,8S,10S,13S,14S,17S)-3-hydroxy-3,10,13-trimethyl-2,3,4,5,6,7,8,10,12,13,14,15,16,17-tetradecahydro-1H-cyclopenta[a]phenanthren-17-yl)-2-(1H-1,2,3-triazol-1-yl)ethan-1-one] | 100 to 1000 |
| C[C@@]1(O)CC[C@]2(C)C3=CC[C@]4(C)[C@@H](C(=O)Cn5nccn5)CC[C@H]4[C@@H]3CC[C@H]2C1 [Example 7, 1-((3R,5S,8S,10S,13S,14S,17S)-3-hydroxy-3,10,13-trimethyl-2,3,4,5,6,7,8,10,12,13,14,15,16,17-tetradecahydro-1H-cyclopenta[a]phenanthren-17-yl)-2-(2H-1,2,3-triazol-2-yl)ethan-1-one] | 100 to 1000 |
| CC(=O)[C@H]1CC[C@H]2[C@@H]3CC[C@@H]4C[C@](C)(O)CC[C@]4(C)C3=CC[C@]12C [Example 8, 1-((3R,5R,8S,10S,13S,14S,17S)-3-hydroxy-3,10,13-trimethyl-2,3,4,5,6,7,8,10,12,13,14,15,16,17-tetradecahydro-1H-cyclopenta[a]phenanthren-17-yl)ethan-1-one] | 10 to 100 |
| C[C@@]1(O)CC[C@]2(C)C3=CC[C@]4(C)[C@@H](C(=O)Cn5cc(C#N)cn5)CC[C@H]4[C@@H]3CC[C@@H]2C1 [Example 9, 1-(2-((3R,5R,8S,10S,13S,14S,17S)-3-hydroxy-3,10,13-trimethyl-2,3,4,5,6,7,8,10,12,13,14,15,16,17-tetradecahydro-1H-cyclopenta[a]phenanthren-17-yl)-2-oxoethyl)-1H-pyrazole-4-carbonitrile] | 10 to 100 |
| Cc1nnn(CC(=O)[C@H]2CC[C@H]3[C@@H]4CC[C@@H]5C[C@](C)(O)CC[C@]5(C)C4=CC[C@]23C)n1 [Example 10, 1-((3R,5R,8S,10S,13S,14S,17S)-3-hydroxy-3,10,13-trimethyl-2,3,4,5,6,7,8,10,12,13,14,15,16,17-tetradecahydro-1H-cyclopenta[a]phenanthren-17-yl)-2-(5-methyl-2H-tetrazol-2-yl)ethan-1-one] | 10 to 100 |
| Cc1nnnn1CC(=O)[C@H]1CC[C@H]2[C@@H]3CC[C@@H]4C[C@](C)(O)CC[C@]4(C)C3=CC[C@]12C [Example 11, 1-((3R,5R,8S,10S,13S,14S,17S)-3-hydroxy-3,10,13-trimethyl-2,3,4,5,6,7,8,10,12,13,14,15,16,17-tetradecahydro-1H-cyclopenta[a]phenanthren-17-yl)-2-(5-methyl-1H-tetrazol-1-yl)ethan-1-one] | 100 to 1000 |
| C[C@@]1(O)CC[C@]2(C)C3=CC[C@]4(C)[C@@H](C(=O)Cn5ccnn5)CC[C@H]4[C@@H]3CC[C@@H]2C1 [Example 12, 1-((3R,5R,8S,10S,13S,14S,17S)-3-hydroxy-3,10,13-trimethyl-2,3,4,5,6,7,8,10,12,13,14,15,16,17-tetradecahydro-1H-cyclopenta[a]phenanthren-17-yl)-2-(1H-1,2,3-triazol-1-yl)ethan-1-one] | 100 to 1000 |
| C[C@@]1(O)CC[C@]2(C)C3=CC[C@]4(C)[C@@H](C(=O)Cn5nccn5)CC[C@H]4[C@@H]3CC[C@@H]2C1 [Example 13, 1-((3R,5R,8S,10S,13S,14S,17S)-3-hydroxy-3,10,13-trimethyl-2,3,4,5,6,7,8,10,12,13,14,15,16,17-tetradecahydro-1H-cyclopenta[a]phenanthren-17-yl)-2-(2H-1,2,3-triazol-2-yl)ethan-1-one] | 10 to 100 |
| CCOC[C@@]1(O)CC[C@]2(C)C3=CC[C@]4(C)[C@@H](C(C)=O)CC[C@H]4[C@@H]3CC[C@H]2C1 [Example 14, 1-((3R,5S,8S,10S,13S,14S,17S)-3-(ethoxymethyl)-3-hydroxy-10,13-dimethyl-2,3,4,5,6,7,8,10,12,13,14,15,16,17-tetradecahydro-1H-cyclopenta[a]phenanthren-17-yl)ethan-1-one] | 1000 to 10000 |
| CCOC[C@@]1(O)CC[C@]2(C)C3=CC[C@]4(C)[C@@H](C(C)=O)CC[C@H]4[C@@H]3CC[C@@H]2C1 [Example 15, 1-((3R,5R,8S,10S,13S,14S,17S)-3-(ethoxymethyl)-3-hydroxy-10,13-dimethyl-2,3,4,5,6,7,8,10,12,13,14,15,16,17-tetradecahydro-1H-cyclopenta[a]phenanthren-17-yl)ethan-1-one] | 100 to 1000 |
| COC[C@@]1(O)CC[C@]2(C)C3=CC[C@]4(C)[C@@H](C(C)=O)CC[C@H]4[C@@H]3CC[C@@H]2C1 [Example 16, 1-((3R,5R,8S,10S,13S,14S,17S)-3-hydroxy-3-(methoxymethyl)-10,13-dimethyl-2,3,4,5,6,7,8,10,12,13,14,15,16,17-tetradecahydro-1H-cyclopenta[a]phenanthren-17-yl)ethan-1-one] | 100 to 1000 |
| COC[C@@]1(O)CC[C@]2(C)C3=CC[C@]4(C)[C@@H](C(=O)Cn5cc(C#N)cn5)CC[C@H]4[C@@H]3CC[C@@H]2C1 [Example 17, 1-(2-((3R,5R,8S,10S,13S,14S,17S)-3-hydroxy-3-(methoxymethyl)-10,13-dimethyl-2,3,4,5,6,7,8,10,12,13,14,15,16,17-tetradecahydro-1H-cyclopenta[a]phenanthren-17-yl)-2-oxoethyl)-1H-pyrazole-4-carbonitrile] | 10 to 100 |
